In US6960574B2, “Antagonists of RF-amide neuropeptides” (University of Florida, priority 2002, dated 2005):
Square brackets hold non-standard residues; d marks the D form. Peptide text beside a SMILES is read from it. * marks the point of attachment. ξ: configuration not given here. Dansyl = CN(C)c1cccc2c(S(=O)(=O)*)cccc12; ξL = CC(C)CC(N)C(=O)O

Tested on: receptor labeled by the radioiodinated analogue of 1 (4, [125I]-YLFQPQRF-NH2); neuropeptide FF receptor
Experiment: Competitive radioligand binding against 4 ([125I]Y8F-amide)
Details: mixture-based positional scanning; difference from averaged radioligand displacement of whole library (0); about 80 a.u. = 10-fold change in Ki

Row | Structure (SMILES) | Relative Binding Index (RBI) [a.u.]
1 | CN(C)c1cccc2c(S(=O)(=O)N[C@@H](Cc3ccc(O)cc3)C(=O)N[C@@H](CCCNC(=N)N)C(=O)N[C@@H](CCCNC(=N)N)C(N)=O)cccc12 [Dansyl-YRR-amide] (Dansyl-Tyr-Arg-Arg-NH2) | 6
2 | CN(C)c1cccc2c(S(=O)(=O)N[C@@H](Cc3c[nH]c4ccccc34)C(=O)N[C@@H](CCC(=O)O)C(=O)N[C@@H](CCCNC(=N)N)C(N)=O)cccc12 [Dansyl-WER-amide] (Dansyl-Trp-Glu-Arg-NH2) | 9
3 | CC[C@H](C)[C@H](NS(=O)(=O)c1cccc2c(N(C)C)cccc12)C(=O)N[C@@H](CCCNC(=N)N)C(=O)N[C@@H](CCCNC(=N)N)C(N)=O [Dansyl-IRR-amide] (Dansyl-Ile-Arg-Arg-NH2) | −12
4 | CC(C)C[C@H](NS(=O)(=O)c1cccc2c(N(C)C)cccc12)C(=O)N[C@@H](CO)C(=O)N[C@@H](CCCNC(=N)N)C(N)=O [Dansyl-LSR-amide] (Dansyl-Leu-Ser-Arg-NH2) | −11
5 | CC(C)C[C@H](NC(=O)[C@H](Cc1c[nH]c2ccccc12)NS(=O)(=O)c1cccc2c(N(C)C)cccc12)C(=O)N[C@@H](CCCNC(=N)N)C(N)=O [Dansyl-WLR-amide] | 0
6 | CN(C)c1cccc2c(S(=O)(=O)NCC(=O)N[C@@H](CCC(=O)O)C(=O)N[C@@H](CCCNC(=N)N)C(N)=O)cccc12 [Dansyl-GER-amide] (Dansyl-Gly-Glu-Arg-NH2) | 25
7 | CN(C)c1cccc2c(S(=O)(=O)N[C@@H](CC(=O)O)C(=O)N[C@@H](CCCCN)C(=O)N[C@@H](CCCNC(=N)N)C(N)=O)cccc12 [Dansyl-DKR-amide] (Dansyl-Asp-Lys-Arg-NH2) | −8
8 | CN(C)c1cccc2c(S(=O)(=O)N[C@@H](Cc3c[nH]cn3)C(=O)N[C@@H](Cc3ccc(O)cc3)C(=O)N[C@@H](CCCNC(=N)N)C(N)=O)cccc12 [Dansyl-HYR-amide] (Dansyl-His-Tyr-Arg-NH2) | 16
9 | CN(C)c1cccc2c(S(=O)(=O)NCC(=O)N[C@@H](CCCNC(=N)N)C(=O)N[C@@H](CCCNC(=N)N)C(N)=O)cccc12 [Dansyl-GRR-amide] | 24
10 | CC[C@H](C)[C@H](NS(=O)(=O)c1cccc2c(N(C)C)cccc12)C(=O)N[C@H](C(=O)N[C@@H](CCCNC(=N)N)C(N)=O)C(C)C [Dansyl-IVR-amide] (Dansyl-Ile-Val-Arg-NH2) | −16
11 | C[C@H](NC(=O)[C@H](Cc1ccc(O)cc1)NS(=O)(=O)c1cccc2c(N(C)C)cccc12)C(=O)N[C@@H](CCCNC(=N)N)C(N)=O [Dansyl-YAR-amide] (Dansyl-Tyr-Ala-Arg-NH2) | −42
12 | CN(C)c1cccc2c(S(=O)(=O)N[C@@H](Cc3ccccc3)C(=O)N[C@@H](CCC(N)=O)C(=O)N[C@@H](CCCNC(=N)N)C(N)=O)cccc12 [Dansyl-FQR-amide] (Dansyl-Phe-Gln-Arg-NH2) | 23
13 | C[C@@H](O)[C@H](NC(=O)[C@H](CCC(N)=O)NS(=O)(=O)c1cccc2c(N(C)C)cccc12)C(=O)N[C@@H](CCCNC(=N)N)C(N)=O [Dansyl-QTR-amide] (Dansyl-Gln-Thr-Arg-NH2) | 27
14 | CN(C)c1cccc2c(S(=O)(=O)N[C@@H](CCC(N)=O)C(=O)N[C@@H](Cc3c[nH]c4ccccc34)C(=O)N[C@@H](CCCNC(=N)N)C(N)=O)cccc12 [Dansyl-QWR-amide] (Dansyl-Gln-Trp-Arg-NH2) | 30
15 | C[C@H](NC(=O)[C@H](CC(N)=O)NS(=O)(=O)c1cccc2c(N(C)C)cccc12)C(=O)N[C@@H](CCCNC(=N)N)C(N)=O [Dansyl-NAR-amide] (Dansyl-Asn-Ala-Arg-NH2) | −36
16 | CSCC[C@H](NC(=O)CNS(=O)(=O)c1cccc2c(N(C)C)cccc12)C(=O)N[C@@H](CCCNC(=N)N)C(N)=O [Dansyl-GMR-amide] (Dansyl-Gly-Met-Arg-NH2) | 25
17 | CN(C)c1cccc2c(S(=O)(=O)N3CCC[C@H]3C(=O)N[C@@H](CCCNC(=N)N)C(=O)N[C@@H](CCCNC(=N)N)C(N)=O)cccc12 [Dansyl-PRR-amide] | −49
18 | CN(C)c1cccc2c(S(=O)(=O)N[C@@H](Cc3c[nH]cn3)C(=O)N[C@@H](CO)C(=O)N[C@@H](CCCNC(=N)N)C(N)=O)cccc12 [Dansyl-HSR-amide] (Dansyl-His-Ser-Arg-NH2) | 37
19 | CC(C)CC(NC(=O)[C@H](C)NS(=O)(=O)c1cccc2c(N(C)C)cccc12)C(=O)N[C@@H](CCCNC(=N)N)C(N)=O (some centres unmarked) [Dansyl-ALR-amide] (Dansyl-Ala-[ξL]-Arg-NH2) | 4
20 | CN(C)c1cccc2c(S(=O)(=O)N[C@@H](CCC(=O)O)C(=O)N[C@@H](Cc3ccc(O)cc3)C(=O)N[C@@H](CCCNC(=N)N)C(N)=O)cccc12 [Dansyl-EYR-amide] (Dansyl-Glu-Tyr-Arg-NH2) | 15
21 | CN(C)c1cccc2c(S(=O)(=O)N[C@@H](CCCCN)C(=O)NCC(=O)N[C@@H](CCCNC(=N)N)C(N)=O)cccc12 [Dansyl-KGR-amide] (Dansyl-Lys-Gly-Arg-NH2) | 30

Row | Structure (SMILES) | Relative Binding Index (RBI) [a.u.]
22 | CC(C)CC(NC(=O)[C@H](CCCCN)NS(=O)(=O)c1cccc2c(N(C)C)cccc12)C(=O)N[C@@H](CCCNC(=N)N)C(N)=O (some centres unmarked) [Dansyl-KLR-amide] (Dansyl-Lys-[ξL]-Arg-NH2) | 16
23 | CSCC[C@H](NS(=O)(=O)c1cccc2c(N(C)C)cccc12)C(=O)N[C@@H](CCCNC(=N)N)C(=O)N[C@@H](CCCNC(=N)N)C(N)=O [Dansyl-MRR-amide] (Dansyl-Met-Arg-Arg-NH2) | −45
24 | CC[C@H](C)[C@H](NC(=O)[C@H](CC(C)C)NS(=O)(=O)c1cccc2c(N(C)C)cccc12)C(=O)N[C@@H](CCCNC(=N)N)C(N)=O [Dansyl-LIR-amide] (Dansyl-Leu-Ile-Arg-NH2) | −26
25 | CN(C)c1cccc2c(S(=O)(=O)N[C@@H](CCC(=O)O)C(=O)N[C@@H](CC(=O)O)C(=O)N[C@@H](CCCNC(=N)N)C(N)=O)cccc12 [Dansyl-EDR-amide] (Dansyl-Glu-Asp-Arg-NH2) | −1
26 | CN(C)c1cccc2c(S(=O)(=O)N[C@@H](CCCCN)C(=O)N[C@@H](CCCCN)C(=O)N[C@@H](CCCNC(=N)N)C(N)=O)cccc12 [Dansyl-KKR-amide] (Dansyl-Lys-Lys-Arg-NH2) | 22
27 | CN(C)c1cccc2c(S(=O)(=O)N[C@@H](CC(N)=O)C(=O)NCC(=O)N[C@@H](CCCNC(=N)N)C(N)=O)cccc12 [Dansyl-NGR-amide] (Dansyl-Asn-Gly-Arg-NH2) | 18
28 | C[C@@H](O)[C@H](NS(=O)(=O)c1cccc2c(N(C)C)cccc12)C(=O)N[C@@H](CO)C(=O)N[C@@H](CCCNC(=N)N)C(N)=O [Dansyl-TSR-amide] (Dansyl-Thr-Ser-Arg-NH2) | 12
29 | CN(C)c1cccc2c(S(=O)(=O)N[C@@H](CCC(=O)O)C(=O)N[C@@H](CCCCN)C(=O)N[C@@H](CCCNC(=N)N)C(N)=O)cccc12 [Dansyl-EKR-amide] (Dansyl-Glu-Lys-Arg-NH2) | 14
30 | CSCC[C@H](NS(=O)(=O)c1cccc2c(N(C)C)cccc12)C(=O)N[C@H](C(=O)N[C@@H](CCCNC(=N)N)C(N)=O)C(C)C [Dansyl-MVR-amide] (Dansyl-Met-Val-Arg-NH2) | −49
31 | CN(C)c1cccc2c(S(=O)(=O)N[C@@H](Cc3c[nH]cn3)C(=O)N[C@@H](CC(=O)O)C(=O)N[C@@H](CCCNC(=N)N)C(N)=O)cccc12 [Dansyl-HDR-amide] (Dansyl-His-Asp-Arg-NH2) | −1
32 | C[C@H](NS(=O)(=O)c1cccc2c(N(C)C)cccc12)C(=O)N1CCC[C@H]1C(=O)N[C@@H](CCCNC(=N)N)C(N)=O [Dansyl-APR-amide] (Dansyl-Ala-Pro-Arg-NH2) | 15
33 | CSCC[C@H](NC(=O)[C@H](CCSC)NS(=O)(=O)c1cccc2c(N(C)C)cccc12)C(=O)N[C@@H](CCCNC(=N)N)C(N)=O [Dansyl-MMR-amide] (Dansyl-Met-Met-Arg-NH2) | −44
34 | CN(C)c1cccc2c(S(=O)(=O)N[C@@H](Cc3ccccc3)C(=O)N[C@@H](Cc3ccc(O)cc3)C(=O)N[C@@H](CCCNC(=N)N)C(N)=O)cccc12 [Dansyl-FYR-amide] (Dansyl-Phe-Tyr-Arg-NH2) | 8
35 | CN(C)c1cccc2c(S(=O)(=O)N[C@@H](CC(=O)O)C(=O)N[C@@H](CCCNC(=N)N)C(=O)N[C@@H](CCCNC(=N)N)C(N)=O)cccc12 [Dansyl-DRR-amide] (Dansyl-Asp-Arg-Arg-NH2) | −7
36 | CN(C)c1cccc2c(S(=O)(=O)N[C@@H](CO)C(=O)N[C@@H](Cc3ccccc3)C(=O)N[C@@H](CCCNC(=N)N)C(N)=O)cccc12 [Dansyl-SFR-amide] (Dansyl-Ser-Phe-Arg-NH2) | 15
37 | CN(C)c1cccc2c(S(=O)(=O)N[C@@H](Cc3ccccc3)C(=O)N[C@@H](CC(=O)O)C(=O)N[C@@H](CCCNC(=N)N)C(N)=O)cccc12 [Dansyl-FDR-amide] (Dansyl-Phe-Asp-Arg-NH2) | −9
38 | CC[C@H](C)[C@H](NS(=O)(=O)c1cccc2c(N(C)C)cccc12)C(=O)N[C@@H](CO)C(=O)N[C@@H](CCCNC(=N)N)C(N)=O [Dansyl-ISR-amide] (Dansyl-Ile-Ser-Arg-NH2) | 10
39 | CN(C)c1cccc2c(S(=O)(=O)N[C@@H](Cc3ccc(O)cc3)C(=O)N[C@@H](Cc3cnc[nH]3)C(=O)N[C@@H](CCCNC(=N)N)C(N)=O)cccc12 [Dansyl-YHR-amide] (Dansyl-Tyr-His-Arg-NH2) | 1
40 | C[C@@H](O)[C@H](NC(=O)[C@@H]1CCCN1S(=O)(=O)c1cccc2c(N(C)C)cccc12)C(=O)N[C@@H](CCCNC(=N)N)C(N)=O [Dansyl-PTR-amide] (Dansyl-Pro-Thr-Arg-NH2) | −42
41 | C[C@H](NS(=O)(=O)c1cccc2c(N(C)C)cccc12)C(=O)N[C@@H](CO)C(=O)N[C@@H](CCCNC(=N)N)C(N)=O [Dansyl-ASR-amide] (Dansyl-Ala-Ser-Arg-NH2) | 33
